# ChEMBL document CHEMBL3596127, “Design, synthesis and molecular docking of novel bipyrazolyl thiazolone scaffold as a new class of antibacterial agents” (Medchemcomm, 2014)
# Legend:
# Pseudomonas aeruginosa = test: Antibacterial activity against Pseudomonas aeruginosa ATCC 13525 after 24 hrs by MTT assay; format: functional; conditions: ATCC 13525, 24 h
# Escherichia coli = test: Antibacterial activity against Escherichia coli ATCC 35218 after 24 hrs by MTT assay; format: functional; conditions: ATCC 35218, 24 h
# [1] = Hemolytic activity in RBC (unknown origin); format: ADME, cell-based; conditions: erythrocyte
# [2] = Inhibition of full-length N-terminal His-tagged Escherichia coli FabH expressed in Escherichia coli BL21 (DE3) using acetyl-CoA/[3H]-acetyl-CoA/holo-ACP as substrate by liquid scintillation counting analysis
# Staphylococcus aureus = test: Antibacterial activity against Staphylococcus aureus ATCC 6538 after 24 hrs by MTT assay; format: functional; conditions: ATCC 6538, 24 h
# Bacillus spizizenii = test: Antibacterial activity against Bacillus subtilis ATCC 6633 after 24 hrs by MTT assay; format: functional; conditions: ATCC 6633, 24 h
SMILES,MIC (Pseudomonas aeruginosa),MIC (Escherichia coli),IC50 [2],MIC (Staphylococcus aureus),MIC (Bacillus spizizenii),LC30 [1]
Cc1nn(-c2ccccc2)c(-n2ccnc2)c1C1CC(c2cccs2)=NN1C1=NC(=O)/C(=C/c2ccco2)S1 (configuration not stated),> 50 µg/mL,25 µg/mL,12.8 µM,6.25 µg/mL,25 µg/mL,> 10000 µg/mL
Cc1nn(-c2ccccc2)c(-n2ccnc2)c1C1CC(c2cccs2)=NN1C1=NC(=O)/C(=C/c2c[nH]c3ccccc23)S1 (configuration not stated),3.13 µg/mL,6.25 µg/mL,3.9 µM,50 µg/mL,25 µg/mL,> 10000 µg/mL
Cc1nn(-c2ccccc2)c(-n2cnc3ccccc32)c1C1CC(c2cccs2)=NN1C1=NC(=O)/C(=C/c2c[nH]c3ccccc23)S1 (configuration not stated),12.5 µg/mL,3.13 µg/mL,2.5 µM,50 µg/mL,12.5 µg/mL,> 10000 µg/mL
Cc1nn(-c2ccccc2)c(-n2nnc3ccccc32)c1C1CC(c2cccs2)=NN1C1=NC(=O)/C(=C/c2c[nH]c3ccccc23)S1 (configuration not stated),6.25 µg/mL,3.13 µg/mL,3.1 µM,25 µg/mL,> 50 µg/mL,> 10000 µg/mL
Cc1nn(-c2ccccc2)c(-n2cnc3ccccc32)c1C1CC(c2cccs2)=NN1C1=NC(=O)/C(=C/c2cccs2)S1 (configuration not stated),25 µg/mL,25 µg/mL,9.1 µM,25 µg/mL,3.13 µg/mL,> 10000 µg/mL
Cc1nn(-c2ccccc2)c(-n2nnc3ccccc32)c1C1CC(c2cccs2)=NN1C1=NC(=O)/C(=C/c2cccs2)S1 (configuration not stated),6.25 µg/mL,50 µg/mL,17.5 µM,> 50 µg/mL,12.5 µg/mL,> 10000 µg/mL
Cc1nn(-c2ccccc2)c(-n2cnc3ccccc32)c1C1CC(c2cccs2)=NN1C1=NC(=O)/C(=C/c2ccco2)S1 (configuration not stated),> 50 µg/mL,> 50 µg/mL,8.5 µM,12.5 µg/mL,6.25 µg/mL,> 10000 µg/mL
Cc1nn(-c2ccccc2)c(-n2nnc3ccccc32)c1C1CC(c2cccs2)=NN1C1=NC(=O)/C(=C/c2ccco2)S1 (configuration not stated),6.25 µg/mL,> 50 µg/mL,21.9 µM,50 µg/mL,> 50 µg/mL,> 10000 µg/mL
NC[C@H]1O[C@H](O[C@H]2[C@H](O)[C@@H](O[C@H]3O[C@H](CO)[C@@H](O)[C@H](N)[C@H]3O)[C@H](N)C[C@@H]2N)[C@H](N)[C@@H](O)[C@@H]1O [BEKANAMYCIN],3.13 µg/mL,1.56 µg/mL,6.3 µM,1.56 µg/mL,0.39 µg/mL,> 10000 µg/mL
CC1(C)S[C@@H]2[C@H](NC(=O)Cc3ccccc3)C(=O)N2[C@H]1C(=O)O [PENICILLIN G],6.25 µg/mL,3.13 µg/mL,,6.25 µg/mL,1.56 µg/mL,

# The next lines start with results.
MIC (Pseudomonas aeruginosa),MIC (Escherichia coli),IC50 [2],MIC (Staphylococcus aureus),MIC (Bacillus spizizenii),SMILES,LC30 [1]
> 50 µg/mL,12.5 µg/mL,4.7 µM,> 50 µg/mL,25 µg/mL,Cc1nn(-c2ccccc2)c(-n2cncn2)c1C1CC(c2cccs2)=NN1C1=NC(=O)/C(=C/c2c[nH]c3ccccc23)S1 (configuration not stated),> 10000 µg/mL
50 µg/mL,25 µg/mL,15.6 µM,6.25 µg/mL,25 µg/mL,Cc1nn(-c2ccccc2)c(-n2cncn2)c1C1CC(c2cccs2)=NN1C1=NC(=O)/C(=C/c2cccs2)S1 (configuration not stated),> 10000 µg/mL
25 µg/mL,> 50 µg/mL,11.3 µM,25 µg/mL,> 50 µg/mL,Cc1nn(-c2ccccc2)c(-n2ccnc2)c1C1CC(c2cccs2)=NN1C1=NC(=O)/C(=C/c2cccs2)S1 (configuration not stated),> 10000 µg/mL
50 µg/mL,50 µg/mL,26.1 µM,> 50 µg/mL,25 µg/mL,Cc1nn(-c2ccccc2)c(-n2cncn2)c1C1CC(c2cccs2)=NN1C1=NC(=O)/C(=C/c2ccco2)S1 (configuration not stated),> 10000 µg/mL
